Laboratory results reported in US20240082431A1, “METALLOHYDROPORPHYRINS FOR PHOTOACOUSTIC IMAGING” (NIRvana Sciences, Inc., priority 2021, published 2024).

Experiment: Photoacoustic imaging of dyes in agar phantoms (VEVO LAZR 2100, PA scanning mode 680-900 nm)
Assay type: physicochemical
Conditions: agar phantom, 63 μM B107, 50 μM ICG in DMF
Protocol: Indocyanine Green (ICG), was obtained from Sigma-Aldrich (Catalogue No. I2633; Sigma-Aldrich Corp., St. Louis, Missouri, United States of America). The nickel bacteriochlorin B107 was prepared as described in Sun et al., 2013 and Chen et al, 2012. Each dye was dissolved in N,N-dimethylformamide (DMF) at the desired concentrations prior to the imaging experiments. Molds for preparing agar phantoms were typically 90 mm diameter glass Petri dishes.
A highly purified agar powder (Catalogue No. A7921; Sigma-Aldrich Corp., St. Louis, Missouri, United States of America) was dissolved in water (Reagent Grade, Type I) to a final concentration of 2.0% and heated to the melting temperature of 95° C. in a microwave oven. […] The bottle containing agar was held at 75-85° C. for 1-3 hours using a standard hot plate and a double boiler to avoid scorching (which causes a detectable increase in the absorption coefficient). This waiting period at an elevated temperature allows the slow release of air bubbles and produces an agar solution with negligible absorption and very low turbidity. […]
Photoacoustic imaging was performed using a VEVO® LAZR^2100 imaging system (VisualSonics, Inc., Toronto, Ontario, Canada) equipped with software version 1.7.2. […] The tubing and its associated image regions were isolated by ultrasound and PA signals for PA intensity quantitation. […]

Max (nm) of PAI signal (depth 3 mm): 790 nm
Max (nm) of PAI signal (depth 6 mm): 795 nm
Structure (SMILES): CC1(C)C(/C=C/C=C/C=C/C=C2\N(CCCCS(=O)(=O)O)c3ccc4ccccc4c3C2(C)C)=[N+](CCCCS(=O)(=O)[O-])c2ccc3ccccc3c21 [ICG, Indocyanine Green]
